Results: patent US20180369264A1, “COMBINATION OF A CARDIAC STEROID AND AN AKT INHIBITOR FOR THE TREATMENT OF CARDIOVASCULAR DISEASES AND DISORDERS” (YISSUM RESEARCH DEVELOPMENT COMPANY OF THE HEBREW …, priority 2015, published 2018)
Where “and” joins values, the source holds several entries; their conditions need not be identical. Identical values can stand only once. Like-named read-outs stand apart in the source and are kept apart here.

How the values were obtained:
[1] = system: wild-type zebrafish larvae heart; type: in vivo, zebrafish (Danio rerio); conditions: for effect on force of contraction / effect on heart rate: 1 nM
Method: Experiments were performed on wild-type (WT, AB strain) zebrafish (Danio rerio). The fish were maintained in accordance with the principles established by the NIH. […] The fish were kept in swimming medium (E3 medium) in small aquaria at 28° C. and maintained under a 14h: 10h light:dark cycle. The zebrafish larvae were maintained in the presence of 0.1% methylene blue (M9140, Sigma-Aldrich Inc, Israel) at 28° C. All measurements were taken in embryos at 72 hours post fertilization (hpf).
Ouabain, bufalin, digoxin, acetylcholine, carbachol, […] (pp2) and U0126 (1,4-diamino-2,3-dicyano-1,4-bis(2-aminophenylthio)butadiene) were purchased from Sigma-Aldrich Inc., Israel. The compounds were dissolved in egg water (0.3 g Instant Ocean Salt in distilled water) to a final selected concentration, as specified in the following examples. […]
(§1) Filming process Zebrafish larvae heart imaging was performed using an Olympus CKX41 (Japan) […] microscope with ×10 or ×20 magnification, and integrated incandescent illumination. A FastCam imi-tech (Korea) high speed digital camera with 640×480 pixel gray scale image sensor was mounted on the microscope, using ImCam software (IMI Technology, Co. Ltd) for high speed video recording. The larvae were anesthetized by placing them in filming/anesthetizing medium. Each larva in 0.5 ml filming/anesthetizing medium was transferred to a 96-well tissue culture plate at room temperature and sequential images of the heart were obtained, with the larvae positioned on their side, at 80 fps during 10 seconds with a shutter speed of 0.016 seconds.
Physiological parameters of cardiovascular performance, as indicated hereinbelow, were evaluated in the zebrafish larvae. Image analysis applications ImageJ (NIH, USA) were used, allowing the delineation of the endomyocardial border at the end of systole or end of diastole to define the ventricular area. Sequential still frames were analyzed to capture ventricular end-systole and end-diastole images. End Systolic Area (ESA, FIG. 1B) and End Diastolic Area (EDA, FIG. 1C) were used to calculate Fractional Area Change (FAC), according to the equation: FAC=(EDA-ESA)/EDA*100. The Ejection Fraction (EF) was determined by an independent estimate of ventricular volume. This was achieved by placing scan lines across the midventricular short axis (SA) and long axis (LA) at the end of systole (FIG. 1D) and diastole (FIG. 1E). […] EF was then calculated according to the equation: EF=(EDV-ESV)/EDV*100. Heart rate (HR) was measured in beats per minute. Cardiac output (CO) was calculated according to the equation: CO=(EDV-ESV)*HR. A minimum of five sequential pairs of systolic and diastolic cycles were measured and analyzed in 9-12 larvae for each treatment.

[2] = in vivo; cited from earlier work
[3] = system: zebrafish accordion mutant (acc) larvae heart; test: In-vivo heart contractility measurements in zebrafish acc mutant larvae; parameters: species or system zebrafish (Danio rerio); conditions: 1 nM, 90 minutes
Method: Ouabain, bufalin, digoxin, acetylcholine, carbachol, […] (pp2) and U0126 (1,4-diamino-2,3-dicyano-1,4-bis(2-aminophenylthio)butadiene) were purchased from Sigma-Aldrich Inc., Israel. The compounds were dissolved in egg water (0.3 g Instant Ocean Salt in distilled water) to a final selected concentration, as specified in the following examples. The larvae in 20 μL of E3 medium were transferred to the egg water solution containing one or two of the above specified drugs of choice, and incubated for 60-90 minutes at 28° C.
as §1
Physiological parameters of cardiovascular performance, as indicated hereinbelow, were evaluated in the zebrafish larvae. […] Sequential still frames were analyzed to capture ventricular end-systole and end-diastole images. […] The Ejection Fraction (EF) was determined by an independent estimate of ventricular volume. […] EF was then calculated according to the equation: EF=(EDV-ESV)/EDV*100. Heart rate (HR) was measured in beats per minute. Cardiac output (CO) was calculated according to the equation: CO=(EDV-ESV)*HR. A minimum of five sequential pairs of systolic and diastolic cycles were measured and analyzed in 9-12 larvae for each treatment.

[4] = system: primary adult zebrafish cardiomyocytes; test: Primary adult zebrafish cardiomyocyte contractility; type: cell-based
Method: Adult (4 to 12-month-old) ventricular myocytes were obtained by enzymatic dissociation (with collagenase II and IV, at 5 mg/ml, each). The zebrafish were stunned by a blow to the head and the brain was pithed. The heart was quickly removed and placed in a small Petri dish containing 10 ml isolation solution: 100 mM NaCl, 10 mM KCl, 1.2 mM KH2PO4, 4 mM MgSO4, 50 mM taurine, 20 mM glucose, and 10 mM Hepes, pH 6.9. The ventricle was cut free from the bulbus and atrium under a binocular. Ventricles from 3 fish were incubated for 45 minutes at 32° C. in a solution containing perfusion buffer (150 mM NaCl, 5.4 mM KCl, 1.5 mM MgSO4, 0.4 mM NaH2PO4, 2 mM CaCl2, 10 mM glucose, and 10 mM Hepes, pH 7.7). Collagenases II and IV (Gibco, NY, USA, 5 mg/ml each) and additional CaCl2 (2.012 mM final concentration) were added. Following Eppendorf centrifugation (1 minute, 250×g at room temperature) the precipitated cells were suspended in 1 ml perfusion buffer for 30 minutes at room temperature before use.
Cells were transferred to a chamber with a quartz base and examined using an inverted epifluorescence microscope (Nikon Diaphot 200, Japan). The myocytes were field-stimulated (0.5 Hz, 70 V, square waves) and contractions were measured using a video motion edge detector (Crescent Electronics, Sandy, Utah, USA) at the rate of 5 Hz. Cardiomyocyte performance was calculated as the percentage of resting cell length. The slopes of contraction and relaxation (+dL/dt and −dL/dt) were calculated from the linear portions of the changes in contractility. 9 cells per each group were measured. Each of the experiments was repeated at least 3 times with identical results.

[5] = system: ERK; test: ERK phosphorylation in adult zebrafish heart (Western blot); type: in vivo; conditions: adult zebrafish heart, control experiments
Method: Adult zebrafish (˜12-months-old) were transferred to swimming medium containing 1 μM of CS drugs, as specified in the following examples. At various time points (5-30 min), as indicated in the following examples, the zebrafish were transferred to perfusion buffer and the hearts were immediately removed and transferred to RIPA lysis buffer (Sigma-Aldrich), and protease inhibitor cocktail (P8340, Sigma-Aldrich), at a 1:100 dilution). The tissue was homogenized in an ultrasonic homogenizer (Microson, NY, USA) and aliquots of the homogenate were stored at −70° C. until used.
Protein dilution and separation on SDS-PAGE electrophoresis, their transfer to a polyvinylidene fluoride membrane were carried out. […] The membranes were washed with TBS containing 0.1% Tween and exposed to horseradish peroxidase-conjugated secondary goat anti-rabbit IgG antibody (1:50,000). The membranes were stripped prior to their exposure to a different antibody. Detection was carried out with the aid of a Luminata™ Crescendo Western HRP Substrates, according to the manufacturer's instructions.

[6] = system: Akt; parameters: scale not given here; conditions: class symbols, key not given; cited from earlier work
[7] = wt, ERK inhibitor experiment, 0.1 nM Oua, 10 nM PD98059, 20 minutes, 0.5 Hz

Q: With `C[C@H]1O[C@@H](O[C@@H]2[C@@H](O)C[C@H](O[C@@H]3[C@@H](O)C[C@@H](O[C@H]4CC[C@@]5(C)[C@H](CC[C@@H]6[C@@H]5C[C@@H](O)[C@]5(C)C(C7=CC(=O)OC7)CC[C@]65O)C4)O[C@@H]3C)O[C@@H]2C)C[C@H](O)[C@H]1O` (stereo partly drawn) [digoxin, 4-[(3 S,5R,8R,9S,10S,12R,13 S, 14S)-3-[(2S,4S,5R,6R)-5-[(2S,4S,5R,6R)-5-[(2S,4S,5R,6R)-4,5-dihydroxy-6-methyl-oxan-2-yl]oxy-4-hydroxy-6-methyl-oxan-2-yl]oxy-4-hydroxy-6-methyl-oxan-2-yl]oxy-12,14-dihydroxy-10,13-dimethyl-1,2,3,4,5,6,7,8,9,11,12,15,16,17-tetradecahydrocyclopenta[a]phenanthren-17-yl]-5H-furan-2-one] as the compound, how does the “effect on force of contraction” value [1] read?
A: increased significantly the force of contraction

Q: What about the “effect on heart rate” value [1] of the same compound?
A: without affecting heart rate

Q: What about the “concentration required for a similar effect, relative to bufalin or ouabain” value ([1]; vs 0.1 nM bufalin or ouabain) of the same compound?
A: about tenfold

Q: And the “plasma concentration at which significant signs of toxicity are observed” value [2]?
A: 3 nM

Q: And the “plasma concentration considered beneficial” value [2]?
A: about 1 nM

Q: What about the “effect on heart contractility” value [3] of the same compound?
A: no effect on heart contractility

Q: What does the source list for `COc1cccc(-c2cc(=O)c3ccccc3o2)c1N` [PD98059, 2′-amino-3′-methoxyflavone]?
A: amplitude of cell contraction, inhibitor alone ([4]; 10 nM PD98059): did not affect the amplitude of cell contraction; contractility and relaxation rise time, inhibitor alone ([4]; 10 nM PD98059): increased contractility and relaxation rise time; ouabain-induced increases in all contractility parameters in the presence of the inhibitor ([4]; 10 nM PD98059, 0.1 nM ouabain): completely prevented; Amplitude [4, 7]: 0.13 ± 0.01; Contraction Rate (−dv/dt) [4, 7]: 0.87 ± 0.09; Relaxation Rate (+dv/dt) [4, 7]: 0.78 ± 0.14; effect on CS-induced increase in ERK phosphorylation [5]: inhibit the CS-induced increase in ERK phosphorylation

Q: For `C=CCc1ccc(O)c(-c2ccc(O)c(CC=C)c2)c1` [Honokiol, 2-(4-hydroxy-3-prop-2-enylphenyl)-4-prop-2-enylphenol], which Akt [6] is on record?
A: ✓

Q: Which “effect on heart contractility and rate” value ([1]; zebrafish, in vivo) does the source give for `CNC[C@H](O)c1ccc(O)c(O)c1` [adrenalin] here?
A: significant increase in heart contractility and rate

Q: And the “effect on heart force of contraction and rate” value ([1]; zebrafish, in vivo)?
A: increase in heart contractility and rate

Q: And the “increase in CO” value ([1]; zebrafish, in vivo)?
A: 18.34±1.97% and 30.48±2.67%

Q: Which Akt [6] does the source give for `Cc1ccccc1CN1C(=O)C2=C(CCN(Cc3ccccc3)C2)N2CCN=C12` [TIC10, 2,4,6,7,8,9-hexahydro-4-[(2-methylphenyl)methyl]-7-(phenylmethyl)-imidazo[1,2-a]pyrido[3,4-e]pyrimidin-5(1H)-one] here?
A: ✓

Q: For `Cc1ccccc1CN1C2=NCCN2C(=O)C2=C1CCN(Cc1ccccc1)C2` [TIC10 Analogue, 2,6,7,8,9,10-hexahydro-10-[(2-methylphenyl)methyl]-7-(phenylmethyl)-imidazo[1,2-a]pyrido[4,3-d]pyrimidin-5(3H)-one], which Akt [6] is on record?
A: ✓

Q: For `CC(C)(C)n1nc(-c2ccc(Cl)cc2)c2c(N)ncnc21` [PP2], which “effect of inhibitor alone on heart function / basal contractility” value ([1]; PP2 50 nM, U0126 1 μM, MK-2206 10 nM for 2 hours) is on record?
A: did not affect heart function

Q: What about the “effect on CS-induced increase in contractility” value ([1]; inhibitor 30 minutes (PP2 50 nM; U0126 1 μM), then CS, measured 90 minutes later) of the same compound?
A: completely abolished the CS-induced increase in contractility

Q: For `CCCCCCCCCCCCCCCCOP(=O)([O-])OCC[N+](C)(C)C` [Miltefosine, hexadecyl 2-(trimethylazaniumyl)ethyl phosphate], which Akt [6] is on record?
A: ✓

Q: Which “reduction in cardiac output (CO)” value ([1]; 1 μM, 90 minutes, wt larvae) does the source give for `C[N+](C)(C)CCOC(N)=O` [carbachol] here?
A: 10.39±2.2%

Q: What about the “reduction in cardiac output (CO)” value ([1]; 10 μM, 90 minutes, wt larvae) of the same compound?
A: 16.92±3%

Q: What about the “effect on heart force of contraction and rate” value ([1]; 1 and 10 μM, 90 minutes, wt larvae) of the same compound?
A: decreased the heart force of contraction and rate

Q: With `N#CC(=C(N)Sc1ccccc1N)C(C#N)=C(N)Sc1ccccc1N` [U0126, 1,4-diamino-2,3-dicyano-1,4-bis(2-aminophenylthio)butadiene] as the compound, how does the “effect of inhibitor alone on heart function / basal contractility” value ([1]; zebrafish, in vivo) read?
A: did not affect basal contractility

Q: What about the “effect on CS-induced increase in contractility” value ([1]; zebrafish, in vivo) of the same compound?
A: prevented the CS-induced increase in contractility

Q: And the “effect on CS-induced increase in ERK phosphorylation” value [5]?
A: inhibit the CS-induced increase in ERK phosphorylation

Q: With `C[C@]12CC[C@H](O)C[C@H]1CC[C@@H]1[C@@H]2CC[C@]2(C)[C@@H](c3ccc(=O)oc3)CC[C@]12O` [bufalin, 5-[(3 S,5R,8R,9S,10S,13R,14S,17R)-3,14-dihydroxy-10,13-dimethyl-1,2,3,4,5,6,7,8,9,11,12,15,16,17-tetradecahydrocyclopenta[a]phenanthren-17-yl]pyran-2-one] as the compound, how does the “effect on force of contraction” value [1] read?
A: increased significantly the force of contraction

Q: And the “effect on heart rate” value [1]?
A: without affecting heart rate

Q: What about the “concentration producing a significant increase in heart contractility” value ([1]; added to larvae swimming medium) of the same compound?
A: 0.1 nM

Q: What about the “effect on heart contractility” value [3] of the same compound?
A: no effect on heart contractility
